Reference: ChEMBL document CHEMBL1147221, “Illudin S, the sole antiviral compound in mature fruiting bodies of Omphalotus illudens” (J Nat Prod, 2003)
The source made the active and inactive calls. The rule behind the calls is not given here.

Legend:
Human alphaherpesvirus 1 [1] = assay: Antiviral activity against HSV1 infected in african green monkey CV1 cells at 10 ug/disk by filter disk method; type: functional, organism-based; details: CV-1
[2] = Cytotoxicity against african green monkey CV1 cells at 10 ug/disk by neutral red staining; type: cell-based; details: chlorocebus aethiops, cv-1
Human alphaherpesvirus 1 [3] = assay: Antiviral activity against HSV1 infected in african green monkey CV1 cells at 5 ug/disk by filter disk method; type: functional, organism-based; details: CV-1
[4] = Cytotoxicity against african green monkey CV1 cells at 5 ug/disk by neutral red staining; type: cell-based; details: chlorocebus aethiops, cv-1
Human alphaherpesvirus 1 [5] = assay: Antiviral activity against HSV1 infected in african green monkey CV1 cells at 2.5 ug/disk by filter disk method; type: functional, organism-based; details: CV-1
[6] = Cytotoxicity against african green monkey CV1 cells at 2.5 ug/disk by neutral red staining; type: cell-based; details: chlorocebus aethiops, cv-1
Human alphaherpesvirus 1 [7] = assay: Antiviral activity against HSV1 infected in african green monkey CV1 cells at 1 ug/disk by filter disk method; type: functional, organism-based; details: CV-1
[8] = Cytotoxicity against african green monkey CV1 cells at 1 ug/disk by neutral red staining; type: cell-based; details: chlorocebus aethiops, cv-1
Human alphaherpesvirus 1 [9] = assay: Antiviral activity against HSV1 infected in african green monkey CV1 cells at 0.5 ug/disk by filter disk method; type: functional, organism-based; details: CV-1
[10] = Cytotoxicity against african green monkey CV1 cells at 0.5 ug/disk by neutral red staining; type: cell-based; details: chlorocebus aethiops, cv-1
Human alphaherpesvirus 1 [11] = assay: Antiviral activity against HSV1 infected in african green monkey CV1 cells at 0.25 ug/disk by filter disk method; type: functional, organism-based; details: CV-1
[12] = Cytotoxicity against african green monkey CV1 cells at 0.25 ug/disk by neutral red staining; type: cell-based; details: chlorocebus aethiops, cv-1
Human alphaherpesvirus 1 [13] = assay: Antiviral activity against HSV1 infected in african green monkey CV1 cells at 0.15 ug/disk by filter disk method; type: functional, organism-based; details: CV-1
[14] = Cytotoxicity against african green monkey CV1 cells at 0.15 ug/disk by neutral red staining; type: cell-based; details: chlorocebus aethiops, cv-1
Human alphaherpesvirus 1 [15] = assay: Antiviral activity against HSV1 infected in african green monkey CV1 cells at 0.1 ug/disk by filter disk method; type: functional, organism-based; details: CV-1
[16] = Cytotoxicity against african green monkey CV1 cells at 0.1 ug/disk by neutral red staining; type: cell-based; details: chlorocebus aethiops, cv-1
Human alphaherpesvirus 1 [17] = assay: Antiviral activity against HSV1 infected in african green monkey CV1 cells at 0.05 ug/disk by filter disk method; type: functional, organism-based; details: CV-1
[18] = Cytotoxicity against african green monkey CV1 cells at 0.05 ug/disk by neutral red staining; type: cell-based; details: chlorocebus aethiops, cv-1
[19] = Cytotoxicity against african green monkey CV1 cells at 0.025 ug/disk by neutral red staining; type: cell-based; details: chlorocebus aethiops, cv-1
[20] = Cytotoxicity against african green monkey CV1 cells at 0.015 ug/disk by neutral red staining; type: cell-based; details: chlorocebus aethiops, cv-1
Human alphaherpesvirus 1 [21] = assay: Antiviral activity against HSV1 infected in african green monkey CV1 cells at 0.010 ug/disk by filter disk method; type: functional, organism-based; details: CV-1
[22] = Cytotoxicity against african green monkey CV1 cells at 0.010 ug/disk by neutral red staining; type: cell-based; details: chlorocebus aethiops, cv-1
Human alphaherpesvirus 1 [23] = assay: Antiviral activity against HSV1 infected in african green monkey CV1 cells at 0.005 ug/disk by filter disk method; type: functional, organism-based; details: CV-1
[24] = Cytotoxicity against african green monkey CV1 cells at 0.005 ug/disk by neutral red staining; type: cell-based; details: chlorocebus aethiops, cv-1

CC1=C2C(=C[C@@](C)(CO)[C@@H]2O)C(=O)[C@](C)(O)C12CC2 [ILLUDIN]
Activity (Human alphaherpesvirus 1 [1]): inactive
Activity [2]: Toxic
Activity (Human alphaherpesvirus 1 [3]): inactive
Activity [4]: Toxic
Activity (Human alphaherpesvirus 1 [5]): inactive
Activity [6]: Toxic
Activity (Human alphaherpesvirus 1 [7]): inactive
Activity [8]: Toxic
Activity (Human alphaherpesvirus 1 [9]): inactive
Activity [10]: Toxic
Activity (Human alphaherpesvirus 1 [11]): inactive
Activity [12]: Toxic
Activity (Human alphaherpesvirus 1 [13]): Active
Activity [14]: Non-toxic
Activity (Human alphaherpesvirus 1 [15]): Active
Activity [16]: Non-toxic
Activity (Human alphaherpesvirus 1 [17]): Active
Activity [18]: Non-toxic
Activity [19]: Non-toxic
Activity [20]: Non-toxic
Activity (Human alphaherpesvirus 1 [21]): inactive
Activity [22]: Non-toxic
Activity (Human alphaherpesvirus 1 [23]): inactive
Activity [24]: Non-toxic
